# Measured values from patent publication US20100028447A1, “Intranasal, Buccal, And Sublingual Administration Of Metanicotine Analogs” (TARGACEPT, INC., priority 2007, published 2010).
# “Also recorded” adds a separate entry of the source.
# System: cultured human respiratory epithelium
# Assay: Permeation across cultured human respiratory epithelium (EpiAir tissue), apical-to-basolateral Papp
# Conditions: p<0.05, two-tailed t-test, N=3
# Excerpt: An in vitro model of MatTek EpiAir® tissue was used for the permeability assessment of the test articles and control compounds. The EpiAir® culture consists of cells that have been cultured to form a pseudo-stratified, highly differentiated model closely resembling the epithelial tissue of the human respiratory tract. The histological cross-sections of the cultured tissue reveal a pseudo-stratified mucociliary phenotype.
# EpiAir® tissues plated in 12 well plates were pre-equilibrated for the assay by culturing them for 24 hours at 37° C. with 5% CO2 in a humidified incubator. On the day of the assay, the cultures were washed two times with Dulbeccos' Phosphate Buffered Saline (DPBS buffer) at pH 7.4, and then dosed with donor and receiver buffer applied to the apical and basolateral surfaces of the culture, respectively. The receiver buffer consisted of DPBS, at pH 7.4. The donor solution consisted of DPBS buffer containing the appropriate compounds as specified in Table 1. All treatments were performed in triplicate. The receiver buffer was sampled at 15, 30, 60, and 120 minutes, and the donor buffer was sampled at 120 minutes.
# The Lucifer Yellow concentration in the receiver samples was measured using a FluoStar fluorescence plate reader (BMG Laboratories, Durham, N.C.).
# The apparent permeability coefficient, Papp, was calculated as follows: […]
# where: dCr/dt is the slope of the cumulative concentration in the receiver compartment versus time; Vr is the volume of the receiver compartment; A is the surface area of epithelium available for permeation; and Co is the dosing solution concentration.
structure (smiles),measurement,value
"CNCC/C=C/c1cccnc1 [Compound B, N-methyl-(4-pyridin-3-yl-but-3-enyl)-amine]",Permeation (Papp) in the presence of the MAO inhibitor Pargyline compared to alone,"significantly lower Papp value in the absence, than in the presence; also recorded: significant increased"
